# According to patent US8916526B2, “Flavanone derivative” (National University Corporation Okayama University, priority 2009, dated 2014):
# Tests used:
# VRE FN-1 = test: In vitro infectivity assay (MIC), broth dilution, Exp. Ex. 1-1; assay type: cell-based, enterococci; conditions: for MIC VRE FN-1: Mueller-Hinton broth, 35° C., 24 hours
# How it was run: (§1)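 CLSI broth dilution, inoculum about 10^5 CUF/[…] in Mueller-Hinton broth with 0.85% NaCl, 24 h at 35° C.; MIC measured three times. Strains included clinical MRSA isolates, MRSA N315, VISA Mu50, MSSA FDA 209P and VRE NCTC 12201 and FN-1.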
# VRE NCTC12201 = test: as above; assay type: cell-based, enterococci; conditions: for MIC VRE NCTC 12201: VRE NCTC12201, Mueller-Hinton broth, 35° C., 24 hours
# How it was run: as §1
# [1] = system: various strains such as MRSA, VISA, MSSA and VRE; test: In vitro infectivity assay (MIC), Exp. Ex. 1-1, strains taken together; assay type: cell-based, Staphylococcus aureus, enterococci; conditions: summary of Table 1
# Procedure: The antibacterial activities were measured based on broth dilution techniques of international standards (Clinical Laboratory Standards Institute: CLSI). The activities were shown by minimum inhibitory concentrations (MICs) determined by inoculating the above-mentioned strains at a concentration of about 10^5 […] into Mueller-Hinton broth (manufactured by Difco) containing 0.85% NaCl in 96-well microplates and incubating the plates at 35° C. for 24 hours. Measurement was carried out three times.
# The antibacterial activities of the compounds of the present invention against various strains such as methicillin-resistant Staphylococcus aureus (MRSA), vancomycin intermediate-resistant Staphylococcus aureus (VISA), methicillin-sensitive Staphylococcus aureus (MSSA), and vancomycin-resistant enterococci (VRE) were examined. Of the bacteria used in MIC measurement in this test example, clinical bacteria of MRSA (OM481 strain and OM584 strain) were supplied from Okayama University Hospital (Japan). An MRSA strain N315, a vancomycin intermediate-resistant Staphylococcus aureus (VISA) strain Mu50, and a methicillin-sensitive Staphylococcus aureus (MSSA) strain FDA 209P were used as controls. Vancomycin-resistant enterococcus (VRE) strains NCTC 12201 and FN-1 were supplied from the National Institute of Infectious Disease (Japan).
# MSSA FDA 209P = test: In vitro infectivity assay (MIC), broth dilution, Exp. Ex. 1-1; assay type: cell-based, Staphylococcus aureus; conditions: for MIC MSS 209P: MSSA FDA 209P, Mueller-Hinton broth, 35° C., 24 hours
# How it was run: as §1
# MRSA OM58 = test: as above; assay type: cell-based, Staphylococcus aureus; conditions: for MIC MRSA OM58: Mueller-Hinton broth, 35° C., 24 hours
# How it was run: as §1
# MRSA OM481 = test: as above; assay type: cell-based, Staphylococcus aureus; conditions: for MIC MRSA OM481: Mueller-Hinton broth, 35° C., 24 hours
# How it was run: as §1
# VISA Mu50 = test: as above; assay type: cell-based, Staphylococcus aureus; conditions: for MIC VISA Mu50: Mueller-Hinton broth, 35° C., 24 hours
# How it was run: as §1
# MRSA N315 = test: as above; assay type: cell-based, Staphylococcus aureus; conditions: for MIC MRSA N315: Mueller-Hinton broth, 35° C., 24 hours
# How it was run: as §1
# [2] = biological target: T1, DNA gyrase of Escherichia coli (Escherichia coli, UniProt P0AES4+P0AES6); test: DNA gyrase inhibition (supercoiling assay kit), Exp. Ex. 1-2; assay type: biochemical; conditions: for Gyrase inhibitory activity IC50: E. coli DNA gyrase supercoiling, relaxed pBR322, 37° C., 30 minutes
# T1 construct: purchased John Innes Enterprises #K0001
# T1 sequence (P0AES4 whole entry, one chain of several): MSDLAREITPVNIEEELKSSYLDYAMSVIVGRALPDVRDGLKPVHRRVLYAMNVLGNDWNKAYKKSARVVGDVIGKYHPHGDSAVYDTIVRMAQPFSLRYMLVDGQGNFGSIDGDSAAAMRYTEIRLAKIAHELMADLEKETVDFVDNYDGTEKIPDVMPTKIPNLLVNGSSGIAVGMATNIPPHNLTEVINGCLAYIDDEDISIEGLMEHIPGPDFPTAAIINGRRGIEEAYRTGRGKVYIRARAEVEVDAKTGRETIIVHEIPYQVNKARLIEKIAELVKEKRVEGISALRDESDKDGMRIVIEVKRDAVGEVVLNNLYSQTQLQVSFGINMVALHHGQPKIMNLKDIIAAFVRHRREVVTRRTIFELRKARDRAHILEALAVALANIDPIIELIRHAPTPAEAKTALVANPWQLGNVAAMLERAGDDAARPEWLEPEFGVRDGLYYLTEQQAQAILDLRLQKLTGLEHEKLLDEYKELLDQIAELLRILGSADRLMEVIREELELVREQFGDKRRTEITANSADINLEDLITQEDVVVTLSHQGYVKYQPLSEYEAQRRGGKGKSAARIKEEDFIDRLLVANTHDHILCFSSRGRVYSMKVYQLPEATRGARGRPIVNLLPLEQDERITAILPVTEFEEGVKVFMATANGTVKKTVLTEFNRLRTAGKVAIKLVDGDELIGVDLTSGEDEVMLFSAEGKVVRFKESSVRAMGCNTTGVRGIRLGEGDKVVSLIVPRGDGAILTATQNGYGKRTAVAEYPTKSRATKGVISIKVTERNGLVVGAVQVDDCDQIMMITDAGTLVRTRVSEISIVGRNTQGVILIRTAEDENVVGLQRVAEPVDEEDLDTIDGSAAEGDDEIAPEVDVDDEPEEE
# How it was run: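 Relaxed pBR322 DNA […] supercoiled by 1 U E. coli gyrase for 30 min at 37 °C in 35 mM Tris-HCl pH 7.5, 24 mM KCl, 4 mM MgCl2, 2 mM DTT, 1.8 mM spermidine, 1 mM ATP, 6.5% glycerol, 0.1 mg/ml BSA. Products resolved by gel electrophoresis; IC50 determined.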
# [3] = system: Methicillin-resistant S. aureus COL; test: In vitro infectivity assay (MIC), Exp. Ex. 2-1; assay type: cell-based; conditions: Staphylococcus aureus, MRSA, 24 h, read-out: MIC MRSA COL
# [4] = system: Methicillin-resistant S. aureus N315; test: In vitro infectivity assay (MIC), Exp. Ex. 2-1; assay type: cell-based, Staphylococcus aureus; conditions: Staphylococcus aureus, MRSA, 24 h, read-out: MIC MRSA N315
# How it was run: (§2)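 CLSI broth microdilution in Mueller-Hinton broth with 0.85% NaCl, inoculum about 10^5 CUF/[…]. MIC read after 24 h at 35° C; each determination run three times.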
# [5] = system: Methicillin sensitive S. aureus 209P; test: In vitro infectivity assay (MIC), Exp. Ex. 2-1; assay type: cell-based, Staphylococcus aureus; conditions: Staphylococcus aureus, 209P / MSSA, 24 h, read-out: MIC MSSA 209P
# How it was run: as §2
# [6] = system: Methicillin-resistant S. aureus OM481; test: In vitro infectivity assay (MIC), Exp. Ex. 2-1; assay type: cell-based, Staphylococcus aureus; conditions: Staphylococcus aureus, MRSA, 24 h, read-out: MIC MRSA OM481
# How it was run: as §2
# [7] = system: Methicillin-resistant S. aureus OM584; test: In vitro infectivity assay (MIC), Exp. Ex. 2-1; assay type: cell-based, Staphylococcus aureus; conditions: Staphylococcus aureus, MRSA, 24 h, read-out: MIC MRSA OM584
# How it was run: as §2
# [8] = system: Vancomycin-resistant enterococci NCTC 12201; test: In vitro infectivity assay (MIC), Exp. Ex. 2-1; assay type: cell-based; conditions: Enterococcus, NCTC 12201 / VRE, 24 h, read-out: MIC VRE NCTC 12201
# How it was run: as §2
# [9] = system: Vancomycin-resistant enterococci FN-1; test: In vitro infectivity assay (MIC), Exp. Ex. 2-1; assay type: cell-based; conditions: Enterococcus, VRE, 24 h, read-out: MIC VRE FN-1
# How it was run: as §2
# [10] = system: Vancomycin intermediate-resistant Staphylococcus aureus Mu50; test: In vitro infectivity assay (MIC), Exp. Ex. 2-1; assay type: cell-based; conditions: Staphylococcus aureus, VISA, 24 h, read-out: MIC VISA Mu50
# How it was run: as §2
# [11] = system: Streptococcus pneumoniae R6; test: In vitro infectivity assay (MIC), Exp. Ex. 2-1; assay type: cell-based; conditions: Streptococcus pneumoniae, R6, 24 h, read-out: MIC S. Pneumoniae R6
# [12] = Acute toxicity evaluation experiment; conditions: ICR mice, observed over 7 days, four mice
# Procedure: (§3) An acute toxicity test of the compound of the present invention was carried out using ICR mice as experimental animals.
# [13] = mouse, in vivo, 10 mg/kg
# Procedure: as §3
Compound,MIC VRE FN-1 (VRE FN-1) [µg/mL],MIC VRE NCTC 12201 (VRE NCTC12201) [µg/mL],Antibacterial activities against the vancomycin resistant bacteria such as VRE and VISA (in words) [1],MIC MSS 209P (MSSA FDA 209P) [µg/mL],MIC MRSA OM58 (MRSA OM58) [µg/mL],MIC MRSA OM481 (MRSA OM481) [µg/mL],MIC VISA Mu50 (VISA Mu50) [µg/mL],MIC MRSA N315 (MRSA N315) [µg/mL],Gyrase inhibitory activity IC50 [2] [µg/mL],also measured
"2-(3′,4′-Dihydroxy)-5,7-dihydroxy-3-β-D-(2″,3″-di-p-flurobenzyloxy)glucosyl-4H-chromen-4-one [Compound 15h]",8,8,strong antibacterial activities,2,8,8,2,2,–,–
"Cc1ccc(CCC(=O)O[C@H]2[C@H](Oc3c(-c4ccc(O)c(O)c4)oc4cc(O)cc(O)c4c3=O)O[C@H](CO)[C@@H](O)[C@@H]2OC(=O)CCc2ccc(C)cc2)cc1 [Compound 15c, 2-(3′,4′-Dihydroxy)-5,7-dihydroxy-3-β-D-(2″,3″-di-p-methylphenylethylcarboxy)glucosyl-4H-chromen-4-one]",2,4,strong antibacterial activities,1,2,2,1,1,3.50,–
"CN[C@H](CC(C)C)C(=O)N[C@H]1C(=O)N[C@@H](CC(N)=O)C(=O)N[C@H]2C(=O)N[C@H]3C(=O)N[C@H](C(=O)N[C@H](C(=O)O)c4cc(O)cc(O)c4-c4cc3ccc4O)[C@H](O)c3ccc(c(Cl)c3)Oc3cc2cc(c3O[C@@H]2O[C@H](CO)[C@@H](O)[C@H](O)[C@H]2O[C@H]2C[C@](C)(N)[C@H](O)[C@H](C)O2)Oc2ccc(cc2Cl)[C@H]1O [Vancomycin, vancomycin, reference compound]",–,–,–,–,–,–,–,–,–,"MIC (VRE FN-1; Enterococcus, VRE, 24 h, read-out: MIC VRE FN-1): > 128 µg/mL; MIC (VRE NCTC12201; Enterococcus, 24 h, read-out: MIC VRE NCTC12201): > 128 µg/mL; MIC [3]: 0.25 µg/mL; MIC [4]: 0.25 µg/mL; MIC [5]: 0.25 µg/mL; MIC [6]: 0.25 µg/mL; MIC [7]: 0.25 µg/mL; MIC [8]: > 128 µg/mL; MIC [9]: > 128 µg/mL; MIC [10]: 8 µg/mL; MIC [11]: 0.25 µg/mL; MIC (MSSA FDA 209P; Staphylococcus aureus, 24 h, read-out: MIC MSS 209P): 0.25 µg/mL; MIC (MRSA OM58; Staphylococcus aureus, MRSA, 24 h, read-out: MIC MRSA OM58): 0.25 µg/mL; MIC (MRSA OM481; Staphylococcus aureus, MRSA, 24 h, read-out: MIC MRSA OM481): 0.25 µg/mL; MIC (VISA Mu50; Staphylococcus aureus, VISA, 24 h, read-out: MIC VISA Mu50): 8 µg/mL; MIC (MRSA N315; Staphylococcus aureus, MRSA, 24 h, read-out: MIC MRSA N315): 0.25 µg/mL"
"O=C(CCc1ccc(F)cc1)O[C@H]1[C@H](Oc2c(-c3ccc(O)c(O)c3)oc3cc(O)cc(O)c3c2=O)O[C@H](CO)[C@@H](O)[C@@H]1OC(=O)CCc1ccc(F)cc1 [Compound 15d, 2-(3′,4′-Dihydroxy)-5,7-dihydroxy-3-β-D-(2″,3″-di-p-flurophenylethylcarboxy)glucosyl-4H-chromen-4-one]",1,1,strong antibacterial activities,0.25,2,2,1,0.25,0.22,"Mortality ([12]; 10 mg/kg for 4 consecutive days): All the mice were not dead until day 7; Mortality ([12]; 100 mg/kg for 4 consecutive days): all the mice in the group were dead on days 5 to 7 after administration; Changes in the body weights [13]: the body weights were slightly reduced from the day after administration, but the body weights of all the four mice were recovered from about day 5 after administration; Gyrase inhibitory effect compared with norfloxacin (in words) ([2]; summary of Table 2): inhibitory effect equal to or greater than that of an existing gyrase inhibitor such as norfloxacin"
